According to patent publication US8329674B2, “Film forming dental compositions and related methods” (3M Innovative Properties Company, priority 2007, dated 2012):
Counter-ions that a name gives are not always drawn. Like-named read-outs stand apart in the source and are kept apart here.

What was measured:
Assay type in all cases: cell-based
[1] = tested on: Streptococcus mutans culture (ATCC 25175); assay: Quantitative Biofilm Inhibition Test; conditions: for activity at 1 % w/w: Streptococcus mutans, ATCC25175, 20 h, read-out: OD Ratio
Protocol: Compounds of the dental compositions of the invention, and comparative compounds, were evaluated for biofilm inhibition activity. Composite dental restorative (available under the trade designation “FILTEK SUPREME” from 3M ESPE Dental Products, St. Paul, Minn.) was placed in a 15 millimeter by 1 millimeter stainless steel die. […] While the die containing the composite restorative was under compression, the composite was irradiated for two minutes using a Model ACE light source (available from SCHOTT North America, Inc., Auburn, N.Y.). The discs of cured composite restorative were then further cured using a Model UniXS light box (available from Heraeus Kulzer, Inc., Armonk, N.Y.) for 1.5 minutes.
The samples were incubated at 37° C. for approximately twenty hours, after which time the cured discs were removed from the broth and were gently rinsed with water. Each disc was placed in a separate test tube containing five milliliters of 1M aqueous sodium hydroxide solution, and each test tube was then sonicated for two minutes using a model SH1012-40-8 ultrasonic generator (manufactured by Branson Ultrasonics Corp., Danbury, Conn.) for two minutes to dislodge biofilm on the disc. The optical absorbance (optical density) of each aqueous sodium hydroxide solution was then measured at 550 nm using a Model ULTROSPEC III UV-visible spectrophotometer (manufactured by Pharmacia AB, Uppsala, Sweden). For each compound of the dental composition, five discs were separately incubated in broth and were evaluated separately to provide five optical density measurements. The average of the five optical density measurements was then calculated. […] The average optical density of the control or comparative samples was determined as described above. […] The ratio was considered to be proportional to the average amount of biofilm on the five cured discs, i.e., relatively low average optical density ratio was considered to be indicative of inhibition of biofilm formation. The ratio for the control was 100%.
(§1) The Quantitative Biofilm Inhibition Test was carried out using five compounds of the dental composition and eleven comparative compounds, each at a concentration of 1 weight percent. […] In addition, the Qualitative Biofilm Inhibition Test was carried out for each Example and Comparative Example, in which each disc was visually examined before it was placed in the tube containing the aqueous sodium hydroxide solution.

[2] = tested on: Streptococcus mutans culture (ATCC 25175); assay: Qualitative Biofilm Inhibition Test; parameters: key: +: refers to a visual assessment that a compound inhibited biofilm formation; −: refers to a visual assessment that either a compound did not inhibit biofilm formation, or that bacteria grew in the culture broth; conditions: 1 weight percent compound; visible biofilm on disc after incubation and rinse
Protocol: as §1, with “During the procedure for the Quantitative Biofilm Inhibition Test, each cured disc was visually examined after it was removed from the broth (and rinsed with water) and before it was placed in a test tube containing five milliliters of 1M aqueous sodium hydroxide solution. The presence or absence of visible biofilm on a disc was noted. The” for “The”

Streptococcus mutans = assay: Bacterial Kill Rate Test
Protocol: Compounds of the dental compositions of the invention were evaluated for extent of bacterial kill in culture. Overnight cultures of Streptococcus mutans in brain heart infusion broth (10^6 CFU/mL) was mixed with a 0.1 weight percent, 0.5 weight percent, or 1.0 weight percent aqueous solution of each compound of the dental composition. After a period of 2, 5, or 10 minutes, 1.0 mL of the mixture was transferred via pipette into a first tube containing 9.0 mL of Letheen broth to provide a 10^−1 dilution. The contents of the tube were mixed using a vortex mixer. A 1.0 mL aliquot of this sample was transferred via pipette into a second tube containing 9.0 mL of Letheen broth to provide a 10^−2 dilution. A 0.1 mL aliquot of each dilution was plated and spread in duplicate on sheep blood agar in Petri dishes, using a “hockey stick” applicator, to provide 10^−2 and 10^−3 dilutions, respectively, on each plate. The plates were incubated at 37° C. for a period of 48 to 72 hours, and then the colony forming units were counted. The CFU counts were compared and the log reduction in the counts were calculated. In Table 3, the bacteria count reduction (log reduction) is the difference between the log of the initial bacteria count and the log of the bacteria count after 2, 5, and 10 minutes.

[3] = tested on: Streptococcus mutans culture (ATCC 25175); assay: Biofilm Inhibition Test: concentration of compound to inhibit biofilm formation at varied sucrose; conditions: tested at 50 or 150 millimolar
Protocol: Compounds of the dental compositions of the invention, and comparative compounds, were evaluated for biofilm inhibition activity. Composite dental restorative (available under the trade designation “FILTEK SUPREME” from 3M ESPE Dental Products, St. Paul, Minn.) was placed in a 15 millimeter by 1 millimeter stainless steel die. The open ends of the die were then covered with polyester film and the die was subjected to a pressure of 68.95 MPa using a hydraulic press. While the die containing the composite restorative was under compression, the composite was irradiated for two minutes using a Model ACE light source (available from SCHOTT North America, Inc., Auburn, N.Y.). The discs of cured composite restorative were then further cured using a Model UniXS light box (available from Heraeus Kulzer, Inc., Armonk, N.Y.) for 1.5 minutes.
The cured discs of composite restorative were then immersed in ten milliliters of Streptococcus mutans culture (ATCC 25175; 10^6 CFU/mL) prepared in brain heart infusion broth that contained 1.0 weight percent sucrose and 1 weight percent of a compound of the dental composition. The samples were incubated at 37° C. for approximately twenty hours, after which time the cured discs were removed from the broth and were gently rinsed with water. Each disc was placed in a separate test tube containing five milliliters of 1M aqueous sodium hydroxide solution, and each test tube was then sonicated for two minutes using a model SH1012-40-8 ultrasonic generator (manufactured by Branson Ultrasonics Corp., Danbury, Conn.) for two minutes to dislodge biofilm on the disc. The optical absorbance (optical density) of each aqueous sodium hydroxide solution was then measured at 550 nm using a Model ULTROSPEC III UV-visible spectrophotometer (manufactured by Pharmacia AB, Uppsala, Sweden). For each compound of the dental composition, five discs were separately incubated in broth and were evaluated separately to provide five optical density measurements. The average of the five optical density measurements was then calculated. […] The average optical density of the control or comparative samples was determined as described above. The ratio, expressed as a percentage, of the average optical density for each compound sample to the average optical density for a control sample was calculated by dividing the average optical density for each compound sample by the average optical density for a control sample and multiplying the result by one hundred. The ratio was considered to be proportional to the average amount of biofilm on the five cured discs, i.e., relatively low average optical density ratio was considered to be indicative of inhibition of biofilm formation. The ratio for the control was 100%.
During the procedure for the Quantitative Biofilm Inhibition Test, each cured disc was visually examined after it was removed from the broth (and rinsed with water) and before it was placed in a test tube containing five milliliters of 1M aqueous sodium hydroxide solution. The presence or absence of visible biofilm on a disc was noted.
The Biofilm Inhibition Test was carried out, using four compounds of the dental composition, in broth containing 1.0, 2.5, or 5.0 weight percent sucrose and the exemplary compounds of the dental composition at a concentration of either 50 millimolar or 150 millimolar. In Table 2, the millimolar concentration of compound that inhibited biofilm formation is given for each concentration of sucrose. An entry of “n/t” means that the compound was not tested in broth containing the corresponding concentration of sucrose.

[4] = 1 weight percent compound, broth with 1.0 weight percent sucrose, approx. twenty hours at 37° C., average OD at 550 nm as percentage of control (100%)

## O=C(CO)[C@@H](O)[C@@H](O)[C@H](O)CO [D-Tagatose]
[1]; [4]
  activity at 1 % w/w: 145%
[2]
  Visual Assessment: −

## C[C@H](O)[C@@H](O)[C@@H](O)[C@H](O)C=O [Fucose]
[1]; [4]
  activity at 1 % w/w: 121%
[2]
  Visual Assessment: −

## N[C@H]1C(O)O[C@H](CO)[C@H](O)[C@@H]1O (stereo partly drawn) [Galactosamine HCl, D-galactosamine]
Streptococcus mutans; 0.1 wt % compound, 2 min.
  Bacteria Count Reduction (log reduction): 1.13 log reduction
Streptococcus mutans; 0.1 wt % compound, 5 min.
  Bacteria Count Reduction (log reduction): 1.00 log reduction
Streptococcus mutans; 0.1 wt % compound, 10 min.
  Bacteria Count Reduction (log reduction): 0.96 log reduction
Streptococcus mutans; 0.5 wt % compound, 2 min.
  Bacteria Count Reduction (log reduction): 0.89 log reduction
Streptococcus mutans; 0.5 wt % compound, 5 min.
  Bacteria Count Reduction (log reduction): 1.08 log reduction
Streptococcus mutans; 0.5 wt % compound, 10 min.
  Bacteria Count Reduction (log reduction): 1.31 log reduction
[1]; [4]
  activity at 1 % w/w: 0%
[2]
  Visual Assessment: +

## O=C[C@H](O)[C@@H](O)[C@@H](O)[C@H](O)CO [Galactose]
[1]; [4]
  activity at 1 % w/w: 87%
[2]
  Visual Assessment: −

## N[C@H]1C(O)O[C@H](CO)[C@@H](O)[C@@H]1O (stereo partly drawn) [Glucosamine HCl, D-glucosamine]
[3]; 1 wt% Sucrose
  Concentration of Compound to Inhibit Biofilm Formation: 50 mM
[3]; 2.5 wt% Sucrose
  Concentration of Compound to Inhibit Biofilm Formation: 50 mM
[3]; 5 wt% Sucrose
  Concentration of Compound to Inhibit Biofilm Formation: 50 mM
Streptococcus mutans; 0.1 wt % compound, 2 min.
  Bacteria Count Reduction (log reduction): 1.03 log reduction
Streptococcus mutans; 0.1 wt % compound, 5 min.
  Bacteria Count Reduction (log reduction): 0.94 log reduction
Streptococcus mutans; 0.1 wt % compound, 10 min.
  Bacteria Count Reduction (log reduction): 0.97 log reduction
Streptococcus mutans; 0.5 wt % compound, 2 min.
  Bacteria Count Reduction (log reduction): 0.99 log reduction
Streptococcus mutans; 0.5 wt % compound, 5 min.
  Bacteria Count Reduction (log reduction): 0.98 log reduction
Streptococcus mutans; 0.5 wt % compound, 10 min.
  Bacteria Count Reduction (log reduction): 0.93 log reduction
Streptococcus mutans; 1.0 wt % compound, 2 min.
  Bacteria Count Reduction (log reduction): 0.93 log reduction
Streptococcus mutans; 1.0 wt % compound, 5 min.
  Bacteria Count Reduction (log reduction): 0.99 log reduction
Streptococcus mutans; 1.0 wt % compound, 10 min.
  Bacteria Count Reduction (log reduction): 0.97 log reduction
[1]; [4]
  OD Ratio: 0%
[2]
  Visual Assessment: +

## OC[C@H]1O[C@@H](O[C@H]2[C@H](O)[C@@H](O)C(O)O[C@@H]2CO)[C@H](O)[C@@H](O)[C@H]1O (stereo partly drawn) [Lactose]
[1]
  activity at 1 % w/w: 82%
[2]
  Visual Assessment: −

## OC[C@H]1O[C@@H](O[C@@H]2[C@@H](O)[C@H](O[C@@H]3[C@@H](O)[C@H](O[C@H]4[C@H](O)[C@@H](CO)OC(O)[C@@H]4O)O[C@H](CO)[C@H]3O)O[C@H](CO)[C@H]2O)[C@H](O)[C@@H](O)[C@@H]1O (stereo partly drawn) [Laminaritetraose]
[1]; [4]
  OD Ratio: 97%
[2]
  Visual Assessment: −

## CC(=O)N[C@H]1C(O)O[C@H](CO)[C@H](O)[C@@H]1O (stereo partly drawn) [N-Acetylgalactosamine]
[1]; [4]
  activity at 1 % w/w: 138%
[2]
  Visual Assessment: −

## CC(=O)N[C@H]1C(O)O[C@H](CO)[C@@H](O)[C@@H]1O (stereo partly drawn) [N-Acetylglucosamine, reference compound]
Streptococcus mutans; 0.1 wt % compound, 2 min.
  Bacteria Count Reduction (log reduction): 1.09 log reduction
Streptococcus mutans; 0.1 wt % compound, 5 min.
  Bacteria Count Reduction (log reduction): 1.02 log reduction
Streptococcus mutans; 0.1 wt % compound, 10 min.
  Bacteria Count Reduction (log reduction): 1.04 log reduction
Streptococcus mutans; 0.5 wt % compound, 2 min.
  Bacteria Count Reduction (log reduction): 1.12 log reduction
Streptococcus mutans; 0.5 wt % compound, 5 min.
  Bacteria Count Reduction (log reduction): 1.16 log reduction
Streptococcus mutans; 0.5 wt % compound, 10 min.
  Bacteria Count Reduction (log reduction): 0.99 log reduction
Streptococcus mutans; 1.0 wt % compound, 2 min.
  Bacteria Count Reduction (log reduction): 1.05 log reduction
Streptococcus mutans; 1.0 wt % compound, 5 min.
  Bacteria Count Reduction (log reduction): 1.12 log reduction
Streptococcus mutans; 1.0 wt % compound, 10 min.
  Bacteria Count Reduction (log reduction): 1.06 log reduction
[1]; [4]
  activity at 1 % w/w: 83%
[2]
  Visual Assessment: −

## CC(=O)N[C@@H]1C(O)O[C@H](CO)[C@@H](O)[C@@H]1O (stereo partly drawn) [N-Acetylmannosamine, reference compound]
Streptococcus mutans; 0.5 wt % compound, 2 min.
  Bacteria Count Reduction (log reduction): 0.93 log reduction
Streptococcus mutans; 0.5 wt % compound, 5 min.
  Bacteria Count Reduction (log reduction): 1.54 log reduction
Streptococcus mutans; 0.5 wt % compound, 10 min.
  Bacteria Count Reduction (log reduction): 1.61 log reduction
[1]; [4]
  activity at 1 % w/w: 51%
[2]
  Visual Assessment: −

## OC[C@@H](O)[C@H](O)[C@@H](O)CO [Xylitol]
[1]; [4]
  activity at 1 % w/w: 123%
[2]
  Visual Assessment: −

## OC[C@H]1O[C@@H](OC[C@H]2O[C@@H](O)[C@H](O)[C@@H](O)[C@@H]2O)[C@H](O)[C@@H](O)[C@@H]1O [beta-Gentiobiose]
[1]; [4]
  OD Ratio: 124%
[2]
  Visual Assessment: −
